Test results taken from EP1247803A2, “Indolinone compounds suitable for modulation of protein kinases” (Sugen, Inc., priority 1996, dated 1998).

Legend:
FLK-1 receptor = molecular target: T1, FLK-1 receptor (Mus musculus, UniProt P35918); experiment: FLK-1 ELISA (kinase activity of the FLK-1 receptor in FLK-1/NIH3T3 cells, VEGF stimulated); format: cell-based
T1 construct: expressed in transfected cells; host or cells: NIH3T3 C7#3
How it was run: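 FLK-1-expressing NIH3T3 C7#3 cells, starved overnight in 0.1% FBS medium, were treated with compounds at a 1:200 final dilution (0.5% DMSO) for 2 h at 37 °C, with VEGF stimulation. FLK-1 kinase activity was read by ELISA on anti-rabbit IgG plates using affinity-purified anti-FLK-1 antiserum.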

PDGF-R = PDGF-R (Homo sapiens, UniProt P09619); experiment: PDGF-R ELISA; format: cell-based
Chain of PDGF-R (P09619 33-1106, species assumed): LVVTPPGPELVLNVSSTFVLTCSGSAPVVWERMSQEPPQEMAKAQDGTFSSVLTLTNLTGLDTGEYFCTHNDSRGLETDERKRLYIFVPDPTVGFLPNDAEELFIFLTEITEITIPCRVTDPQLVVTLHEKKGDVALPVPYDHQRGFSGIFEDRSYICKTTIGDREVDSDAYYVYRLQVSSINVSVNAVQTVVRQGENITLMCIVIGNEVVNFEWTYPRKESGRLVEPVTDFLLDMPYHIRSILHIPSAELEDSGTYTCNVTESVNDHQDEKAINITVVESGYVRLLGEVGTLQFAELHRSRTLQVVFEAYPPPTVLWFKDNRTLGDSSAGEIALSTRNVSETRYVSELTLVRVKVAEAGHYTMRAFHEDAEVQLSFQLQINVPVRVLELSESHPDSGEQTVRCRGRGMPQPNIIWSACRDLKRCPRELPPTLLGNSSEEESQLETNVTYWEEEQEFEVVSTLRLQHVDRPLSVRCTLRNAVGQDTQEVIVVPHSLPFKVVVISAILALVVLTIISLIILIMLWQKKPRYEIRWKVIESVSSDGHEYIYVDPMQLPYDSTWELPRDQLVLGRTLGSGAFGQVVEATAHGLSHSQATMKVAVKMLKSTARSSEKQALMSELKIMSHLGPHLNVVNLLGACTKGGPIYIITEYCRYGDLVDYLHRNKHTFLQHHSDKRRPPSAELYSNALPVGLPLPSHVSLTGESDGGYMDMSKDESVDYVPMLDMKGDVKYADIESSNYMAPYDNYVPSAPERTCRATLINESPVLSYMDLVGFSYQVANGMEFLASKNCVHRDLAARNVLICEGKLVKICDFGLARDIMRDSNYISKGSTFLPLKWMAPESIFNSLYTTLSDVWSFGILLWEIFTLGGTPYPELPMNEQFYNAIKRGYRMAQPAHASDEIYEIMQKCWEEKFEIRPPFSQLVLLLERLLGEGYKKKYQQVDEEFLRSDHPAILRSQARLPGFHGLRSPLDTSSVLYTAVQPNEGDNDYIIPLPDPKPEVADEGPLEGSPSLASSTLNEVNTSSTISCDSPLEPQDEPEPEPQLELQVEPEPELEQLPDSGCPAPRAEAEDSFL
Description: A PDGF-R ELISA is described in International Patent Publication No. WO 96/40116, published December 19, 1996 by Tang et al.

T1 sequence (P35918 20-1345): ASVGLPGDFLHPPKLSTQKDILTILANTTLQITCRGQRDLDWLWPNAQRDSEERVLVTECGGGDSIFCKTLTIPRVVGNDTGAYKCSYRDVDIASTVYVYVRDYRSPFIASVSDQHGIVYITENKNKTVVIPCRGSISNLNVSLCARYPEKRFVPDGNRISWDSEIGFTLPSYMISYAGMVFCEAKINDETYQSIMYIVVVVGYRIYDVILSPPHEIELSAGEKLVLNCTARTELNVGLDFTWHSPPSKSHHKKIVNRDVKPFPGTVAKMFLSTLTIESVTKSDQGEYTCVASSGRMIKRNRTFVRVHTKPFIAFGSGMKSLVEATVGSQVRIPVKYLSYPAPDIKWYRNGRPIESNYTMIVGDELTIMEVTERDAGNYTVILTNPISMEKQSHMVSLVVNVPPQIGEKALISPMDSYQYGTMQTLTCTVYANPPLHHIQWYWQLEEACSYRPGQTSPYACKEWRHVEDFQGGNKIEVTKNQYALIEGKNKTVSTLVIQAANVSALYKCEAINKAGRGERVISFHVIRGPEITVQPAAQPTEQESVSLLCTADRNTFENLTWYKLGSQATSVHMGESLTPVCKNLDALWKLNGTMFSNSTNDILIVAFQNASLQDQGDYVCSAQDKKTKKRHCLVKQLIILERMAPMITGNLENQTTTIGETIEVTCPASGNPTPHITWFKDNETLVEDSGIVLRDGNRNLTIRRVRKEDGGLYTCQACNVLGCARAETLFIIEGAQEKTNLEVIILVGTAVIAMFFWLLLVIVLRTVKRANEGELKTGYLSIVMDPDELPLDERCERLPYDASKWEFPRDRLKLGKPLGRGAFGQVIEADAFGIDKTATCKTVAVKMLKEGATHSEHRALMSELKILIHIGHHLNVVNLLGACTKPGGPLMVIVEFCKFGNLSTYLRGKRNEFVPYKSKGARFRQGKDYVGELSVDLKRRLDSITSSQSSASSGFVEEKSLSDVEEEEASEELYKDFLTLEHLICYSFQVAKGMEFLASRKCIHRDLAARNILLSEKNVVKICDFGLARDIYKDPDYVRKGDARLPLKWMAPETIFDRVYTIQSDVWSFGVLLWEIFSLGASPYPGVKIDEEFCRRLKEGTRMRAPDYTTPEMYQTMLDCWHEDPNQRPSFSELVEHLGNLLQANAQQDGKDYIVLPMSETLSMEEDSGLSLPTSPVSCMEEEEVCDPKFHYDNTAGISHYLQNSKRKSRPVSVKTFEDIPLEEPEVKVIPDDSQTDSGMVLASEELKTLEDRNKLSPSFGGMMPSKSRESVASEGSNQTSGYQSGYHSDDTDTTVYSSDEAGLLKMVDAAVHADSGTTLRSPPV

Structure (SMILES) | Fik Kinase %Inhibition (FLK-1 receptor) | PDGF Kinase %Inhibition (PDGF-R)
O=C1Nc2ccccc2C1=C1C(=O)Nc2ccc(S(=O)(=O)Nc3ccc(C(F)(F)F)cc3)cc21 [10726/E09] | 9.9% | 34.7%
O=C1Nc2c(Br)cc(Br)cc2C1=Cc1cc(Cl)cc(Br)c1O [10727/A04] | -4.6% | 12.3%
O=C1Nc2ccc(F)cc2C1=C1C(=O)Nc2ccc(S(=O)(=O)N3CCOCC3)cc21 [10726/F08] | 15.3% | 28.4%
CCOC(=O)c1[nH]c(C=C2C(=O)Nc3ccc(S(=O)(=O)Nc4ccc(C(F)(F)F)cc4)cc32)c(C(=O)OC)c1C [10726/E03] | -5.5% | 20.2%
COc1cccc(O)c1C=C1C(=O)Nc2ccc(CCCl)cc21 [10717/G10] | 4.8% | 
O=C1Nc2ccc(CCCl)cc2C1=Cc1c[nH]c2ccccc12 [10717/G06] | 4.3% | 
COc1cccc(C=C2C(=O)Nc3c(Br)cc(Br)cc32)c1OC [10727/A11] | 7.4% | 10.8%
O=C1Nc2ccc(S(=O)(=O)N3CCOCC3)cc2C1=Cc1ccc(Br)o1 [10726/F05] | 8.9% | -17.8%
Cc1c(Br)ccc2c1C(=Cc1ccccc1Sc1ccc(Cl)cc1)C(=O)N2 [10727/C05] | 13.7% | 7.9%
Cc1c(Br)ccc2c1C(=Cc1cc(O)ccc1O)C(=O)N2 [10727/C10] | -35.3% | 45.7%
O=C1Nc2c(Br)cc(Br)cc2C1=Cc1coc2ccccc2c1=O [10727/A07] | -10.7% | 12.3%
CCc1cc(CC)c(C=C2C(=O)Nc3c(Br)cc(Br)cc32)[nH]1 [10727/A03] | 6.3% | -4.5%
O=C1Nc2c(Br)cc(Br)cc2C1=Cc1cc2c(cc1Cl)OCO2 [10727/A06] | -17.1% | 13.7%
CCc1cc(CC)c(C=C2C(=O)Nc3ccc(Br)c(C)c32)[nH]1 [10727/C03] | -3.2% | 11.5%
COc1ccc(C=C2C(=O)Nc3ccc(CCCl)cc32)cc1 [10726/G11] | 9.1% | -7.7%
N#Cc1ccc(C=C2C(=O)Nc3c(Br)cc(Br)cc32)cc1 [10727/A09] | -16.8% | 16.6%
O=C1Nc2ccccc2C1=C1C(=O)Nc2ccc(CCCl)cc21 [10726/G09] | 3.6% | 13.2%
Cc1c(Br)ccc2c1C(=Cc1cccc(C#N)c1)C(=O)N2 [10727/C08] | 4.9% | 23.2%
CCc1ccc(C=C2C(=O)Nc3ccc(S(=O)(=O)N4CCOCC4)cc32)s1 [10726/F10] | 7.0% | 9.4%
O=C1Nc2ccc(CCCl)cc2C1=Cc1ccc[nH]1 [10717/G09] | -29.7% | 
Cc1cn(C)cc1C=C1C(=O)Nc2ccc(S(=O)(=O)Nc3ccc(C(F)(F)F)cc3)cc21 [10726/E06] | 6.2% | 41.7%

Structure (SMILES) | Fik Kinase %Inhibition (FLK-1 receptor) | PDGF Kinase %Inhibition (PDGF-R)
CNS(=O)(=O)c1ccc2c(c1)C(=C1C(=O)Nc3ccccc31)C(=O)N2 [10726/D09] | 14.4% | 22.1%
CCc1cc(CC)c(C=C2C(=O)Nc3ccc(S(=O)(=O)NC)cc32)[nH]1 [10727/D03] | 3.1% | -3.0%
O=C1Nc2ccc(S(=O)(=O)Nc3ccc(C(F)(F)F)cc3)cc2C1=Cc1ccc(Br)o1 [10726/E05] | 8.1% | 4.3%
O=C1Nc2ccc(I)cc2C1=Cc1coc2ccccc2c1=O [10727/B07] | 8.4% | 0.6%
COc1cccc(C=C2C(=O)Nc3ccc(I)cc32)c1OC [10727/B11] | 16.8% | 15.9%
O=C1Nc2ccc(I)cc2C1=Cc1cc(Cl)cc(Br)c1O [10727/B04] | 46.0% | 21.0%
O=C1Nc2ccccc2C1=C1C(=O)Nc2ccc(S(=O)(=O)N3CCOCC3)cc21 [10726/F09] | 9.6% | -2.6%
N#Cc1cccc(C=C2C(=O)Nc3ccc(I)cc32)c1 [10727/B08] | 4.0% | 14.4%
N#Cc1cccc(C=C2C(=O)Nc3c(Br)cc(Br)cc32)c1 [10727/A08] | -0.6% | 15.2%
Cc1c(Br)ccc2c1C(=C1C(=O)Nc3ccc(F)cc31)C(=O)N2 [10726/C08] | 3.4% | 21.4%
Cc1c(Br)ccc2c1C(=C1C(=O)Nc3ccccc31)C(=O)N2 [10726/C09] | 12.9% | 26.5%
CNS(=O)(=O)c1ccc2c(c1)C(=Cc1ccc(Br)o1)C(=O)N2 [10726/D05] | 8.2% | 39.1%
N#Cc1ccc(C=C2C(=O)Nc3ccc(I)cc32)cc1 [10727/B09] | 6.7% | 18.1%
Cc1c(Br)ccc2c1C(=Cc1coc3ccccc3c1=O)C(=O)N2 [10727/C07] | 15.9% | 13.0%
CNS(=O)(=O)c1ccc2c(c1)C(=Cc1cc(C)c(O)c(C(C)(C)C)c1)C(=O)N2 [10726/D04] | 7.8% | 34.1%
Cc1cc(C=C2C(=O)Nc3ccc(S(=O)(=O)N4CCOCC4)cc32)cc(C(C)(C)C)c1O [10726/F04] | 31.5% | 18.3%
O=C1Nc2ccc(CCCl)cc2C1=Cc1ccc(F)cc1 [10717/G05] | 5.3% | 
O=C1Nc2ccc(CCCl)cc2C1=Cc1ccc(Br)cc1 [10717/G08] | 1.9% | 
O=C1Nc2c(Br)cc(Br)cc2C1=Cc1c[nH]c2ccccc12 [10717/A06] | -10.8% | 
Cc1ccc(C=C2C(=O)Nc3ccc(CCCl)cc32)s1 [10717/G07] | -17.0% | 
Cn1cccc1C=C1C(=O)Nc2ccc(CCCl)cc21 [10717/G04] | 0.8% | 
